# Results from patent US20060183778A1, “Osteogenesis-promotion enhancer and method of screening the same” (priority 2003, published 2006).
# Legend:
# Type in all cases: cell-based
# C2C12 cells [1] = experiment: Test Example 4: influence of serum (FBS) concentration on ALP activity of C2C12 cells; conditions: compound A 1 μM, rhBMP-4 50 ng/ml, FBS 2.5%, 5%, 10% or 20%, 9 days
# Method: After the respective cells were cultured for 9 days, a degree of progression of bone differentiation was examined by staining with an alkaline phosphatase (ALP) staining kit #85-3R (Sigma). […] Regarding the respective cells, the ALP activity was measured in the same manner as in Test Example 1.
# [2] = tested on: Human mesenchymal stem cells (hMSCs); experiment: Test Example 2: ALP activity of human mesenchymal stem cells; conditions: serum-free medium, compound A 1 μM with rhBMP-4 50 ng/ml
# Method: After the respective cells were cultured for 9 days, a degree of progression of bone differentiation was examined by staining with an alkaline phosphatase (ALP) staining kit #85-3R (Sigma). […] Quantitative analysis of an ALP activity was conducted in the same manner as in Test Example 1. Accumulation of calcium was measured through visualization by the von Kossa method. That is, the respective cells were immobilized with a phosphate buffered saline (PBS) containing 3% glutaraldehyde, and washed with PBS and with distilled water. The immobilized cells were reacted with 2.5% silver nitrate for 60 minutes while applying light, then washed, and developed with 0.5% hydroquinone for 2 minutes. Excess silver was washed away with a 5% sodium thiosulfate solution.
# C2C12 cells [3] = experiment: Test Example 1: bone differentiation of C2C12 cells, alkaline phosphatase (ALP) staining and ALP activity; conditions: 9 days
# Method: After the respective cells were cultured for 9 days, a degree of progression of bone differentiation was examined by staining with an alkaline phosphatase (ALP) staining kit #85-3R (Sigma). Quantitative analysis of an ALP activity was conducted according to the Fujii et al. method (e.g., see Fujii M et al, “Mol Biol Cell.” published by American Society for Cell Biology (U.S.A.), 1999, vol. 10, p. 3801-3813] by using a Sigma Fast p-nitrophenyl phosphate tablet set. A protein concentration of each extract was measured by a DC protein assay (Bio-Rad) using a bovine serum albumin as a standard substance.
# [4] = tested on: Human mesenchymal stem cells (hMSCs); experiment: Test Example 2: calcium accumulation of human mesenchymal stem cells by the von Kossa method; conditions: serum-free medium, compound A 1 μM with rhBMP-4 50 ng/ml
# Method: Quantitative analysis of an ALP activity was conducted in the same manner as in Test Example 1. Accumulation of calcium was measured through visualization by the von Kossa method. That is, the respective cells were immobilized with a phosphate buffered saline (PBS) containing 3% glutaraldehyde, and washed with PBS and with distilled water. The immobilized cells were reacted with 2.5% silver nitrate for 60 minutes while applying light, then washed, and developed with 0.5% hydroquinone for 2 minutes. Excess silver was washed away with a 5% sodium thiosulfate solution.
smiles,measurement,setting,value
"NC(=O)c1ccc(-c2nc(-c3ccc4c(c3)OCO4)c(-c3ccccn3)[nH]2)cc1 [compound A, 4-(4-benzo[1,3]dioxol-5-yl-5-pyridin-2-yl-1H-imidazol-2-yl)benzamide]",activity to enhance the acceleration of osteogenesis (ALP staining / ALP activity) as a function of FBS concentration,C2C12 cells [1],decreased with the increase in FBS concentration
same,increase in ALP activity induced with rhBMP-4,[2],further enhanced
same,activity of accelerating bone differentiation by stimulation of rhBMP-4 (ALP staining / ALP activity),"C2C12 cells [3]; compound A 1 μM with rhBMP-4 50 ng/ml, 5% fetal bovine serum",enhanced
same,activity of accelerating bone differentiation of C2C12 cells (ALP staining),"C2C12 cells [3]; compound A (1 μM) alone, without rhBMP-4, 5% fetal bovine serum",not observed
same,calcium accumulation induced with rhBMP-4 (von Kossa staining),[4],further enhanced
